Data on 30 compounds can be found in patent publication US8013156B2 (Exelixis, Inc., priority 2003, dated 2011).

A value given as a limit tells only on which side of the number the result lay.

For the test, the target named is Tie-2 (Homo sapiens, UniProt Q02763). Briefly: Tie-2 tyrosine kinase activity assay (luciferase/luciferin ATP consumption with pEY substrate, or 33P-ATP incorporation). The following applies: human enzyme Tie-2. The class given is biochemical. The procedure, abridged: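 Values are IC50 categories (A <50 nM to D ≥10,000 nM), with Ki obtainable by fitting rates to a tight-binding model. Assay formats: 33P-ATP phosphate transfer to adsorbed generic substrate counted by scintillation, or luciferase-detected ATP depletion using pEY.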
Chain of Tie-2 (Q02763 23-1124): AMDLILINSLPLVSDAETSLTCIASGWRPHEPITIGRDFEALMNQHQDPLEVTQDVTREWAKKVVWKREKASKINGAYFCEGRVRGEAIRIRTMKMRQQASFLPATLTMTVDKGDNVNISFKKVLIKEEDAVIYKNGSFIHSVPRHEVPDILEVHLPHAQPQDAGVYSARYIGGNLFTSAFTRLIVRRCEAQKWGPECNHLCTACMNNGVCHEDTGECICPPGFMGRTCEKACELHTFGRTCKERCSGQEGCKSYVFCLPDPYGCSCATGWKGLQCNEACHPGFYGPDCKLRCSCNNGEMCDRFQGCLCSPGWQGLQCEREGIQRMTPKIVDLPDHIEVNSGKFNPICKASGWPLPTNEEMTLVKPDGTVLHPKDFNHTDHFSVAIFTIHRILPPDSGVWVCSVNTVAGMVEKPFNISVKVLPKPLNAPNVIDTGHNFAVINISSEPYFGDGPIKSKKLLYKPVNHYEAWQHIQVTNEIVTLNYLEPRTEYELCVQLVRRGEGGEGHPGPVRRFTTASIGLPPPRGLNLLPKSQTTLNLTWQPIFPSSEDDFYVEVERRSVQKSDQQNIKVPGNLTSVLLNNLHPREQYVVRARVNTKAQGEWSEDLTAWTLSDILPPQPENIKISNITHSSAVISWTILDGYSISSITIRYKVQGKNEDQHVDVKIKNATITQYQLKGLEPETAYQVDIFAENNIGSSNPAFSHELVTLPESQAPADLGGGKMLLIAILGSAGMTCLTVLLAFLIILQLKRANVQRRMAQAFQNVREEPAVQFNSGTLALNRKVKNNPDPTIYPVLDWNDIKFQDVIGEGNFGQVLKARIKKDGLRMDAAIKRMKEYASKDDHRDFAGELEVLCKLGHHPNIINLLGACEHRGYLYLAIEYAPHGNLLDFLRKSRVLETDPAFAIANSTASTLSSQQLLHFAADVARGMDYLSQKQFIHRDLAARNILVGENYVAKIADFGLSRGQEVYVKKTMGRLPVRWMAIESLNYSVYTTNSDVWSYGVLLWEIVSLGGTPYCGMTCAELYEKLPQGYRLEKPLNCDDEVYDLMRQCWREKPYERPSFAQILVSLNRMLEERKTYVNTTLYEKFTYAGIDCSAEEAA
As for `O=C(Nc1cc(COc2nsnc2N2CCN(C(=O)Nc3cc(C(F)(F)F)cc(C(F)(F)F)c3)CC2)ccn1)c1ccccc1` [Example 125, N-[3,5-bis(trifluoromethyl)phenyl]-4-{4-[({2-[(phenylcarbonyl)amino]pyridin-4-yl}methyl)oxy]-1,2,5-thiadiazol-3-yl}piperazine-1-carboxamide], the IC50 was in the range of 1000 to 10000 nM.
In the case of `CCCNc1nccc(COc2nsnc2N2CCN(C(=O)Nc3cc(C(F)(F)F)cc(C(F)(F)F)c3)CC2)n1` [Example 122, N-[3,5-bis(trifluoromethyl)phenyl]-4-[4-({[2-(propylamino)pyrimidin-4-yl]methyl}oxy)-1,2,5-thiadiazol-3-yl]piperazine-1-carboxamide] it was 50 to 1000 nM.
As for `O=C(Nc1cc(C(F)(F)F)cc(C(F)(F)F)c1)N1CCN(c2ncccc2OCc2ccncc2)CC1` [Example 97, N-[3,5-bis(trifluoromethyl)phenyl]-4-{3-[(pyridin-4-ylmethyl)oxy]pyridin-2-yl}piperazine-1-carboxamide], the figure is below 50 nM; as for `CN1CCN(CC(=O)Nc2cc(COc3cccnc3N3CCN(C(=O)Nc4cc(F)cc(C(F)(F)F)c4)CC3)ccn2)CC1` [Example 212, N-[3-fluoro-5-(trifluoromethyl)phenyl]-4-(3-{[(2-{[(4-methylpiperazin-1-yl)acetyl]amino}pyridin-4-yl)methyl]oxy}pyridin-2-yl)piperazine-1-carboxamide], below 50 nM; as for `COc1cccc(NC(=O)N2CCN(c3nsnc3OCc3ccnc(N)n3)CC2)c1` [Example 259, 4-(4-{[(2-aminopyrimidin-4-yl)methyl]oxy}-1,2,5-thiadiazol-3-yl)-N-[3-(methyloxy)phenyl]piperazine-1-carboxamide], 50 to 1000 nM.
`O=C(Nc1cc(C(F)(F)F)cc(C(F)(F)F)c1)N1CCN(c2nsnc2OCc2ccncn2)CC1` [Example 138, N-[3,5-bis(trifluoromethyl)phenyl]-4-{4-[(pyrimidin-4-ylmethyl)oxy]-1,2,5-thiadiazol-3-yl}piperazine-1-carboxamide] yielded a half-inhibitory concentration (IC50) of 50 to 1000 nM.
In the case of `CC(=O)N1CCN(c2ncccc2OCc2ccnc(N)n2)CC1` [Example 207, 4-({[2-(4-acetylpiperazin-1-yl)pyridin-3-yl]oxy}methyl)pyrimidin-2-amine] it was at least 10000 nM.
As for `COC(=O)Nc1cc(COc2nsnc2N2CCN(C(=O)Nc3cc(C(F)(F)F)cc(C(F)(F)F)c3)CC2)ccn1` [Example 101, methyl {4-[({4-[4-({[3,5-bis(trifluoromethyl)phenyl]amino}carbonyl)piperazin-1-yl]-1,2,5-thiadiazol-3-yl}oxy)methyl]pyridin-2-yl}carbamate], the figure is below 50 nM.
In the case of `CC1CN(c2nccnc2OCc2ccncc2)CCN1C(=O)Nc1cccc(C(F)(F)F)c1` (stereo not drawn) [Example 63, 2-methyl-4-{3-[(pyridin-4-ylmethyl)oxy]pyrazin-2-yl}-N-[3-(trifluoromethyl)phenyl]piperazine-1-carboxamide] it was 50 to 1000 nM; in that of `Nc1nccc(COc2nccnc2N2CCN(C(=O)Nc3cccc(C(F)(F)F)c3)CC2)n1` [Example 229, 4-(3-{[(2-aminopyrimidin-4-yl)methyl]oxy}pyrazin-2-yl)-N-[3-(trifluoromethyl)phenyl]piperazine-1-carboxamide], below 50 nM.
Regarding `O=C(Nc1cc(C(F)(F)F)cc(C(F)(F)F)c1)N1CCN(c2nsnc2OCc2ccoc2)CC1` [Example 20], the half-maximal inhibitory concentration (IC50) was at least 10000 nM.
In the case of `CN1CCN(CCOC(=O)Nc2cc(COc3nsnc3N3CCN(C(=O)Nc4cc(C(F)(F)F)cc(C(F)(F)F)c4)CC3)ccn2)CC1` [Example 145, 2-(4-methylpiperazin-1-yl)ethyl {4-[({4-[4-({[3,5-bis(trifluoromethyl)phenyl]amino}carbonyl)piperazin-1-yl]-1,2,5-thiadiazol-3-yl}oxy)methyl]pyridin-2-yl}carbamate] it was below 50 nM.
In turn, `Nc1nccc(COc2cccnc2N2CCN(C(=O)Nc3ccc(F)cc3)CC2)n1` [Example 187, 4-(3-{[(2-aminopyrimidin-4-yl)methyl]oxy}pyridin-2-yl)-N-(4-fluorophenyl)piperazine-1-carboxamide] had an IC50 of 1000 to 10000 nM.
In the case of `Nc1nccc(COc2cccnc2N2CCN(C(=O)Nc3cc(C(F)(F)F)cc(Cl)c3F)CC2)n1` [Example 249, 4-(3-{[(2-aminopyrimidin-4-yl)methyl]oxy}pyridin-2-yl)-N-[3-chloro-2-fluoro-5-(trifluoromethyl)phenyl]piperazine-1-carboxamide] it was below 50 nM; in that of `Nc1nccc(COc2cccnc2N2CCN(C(=O)Nc3cccc(Br)c3)CC2)n1` [Example 184, 4-(3-{[(2-aminopyrimidin-4-yl)methyl]oxy}pyridin-2-yl)-N-(3-bromophenyl)piperazine-1-carboxamide], below 50 nM.
For the compound `CCCCOc1nccc(COc2nsnc2N2CCN(C(=O)Nc3cc(C(F)(F)F)cc(C(F)(F)F)c3)CC2)n1` [Example 137, N-[3,5-bis(trifluoromethyl)phenyl]-4-[4-({[2-(butyloxy)pyrimidin-4-yl]methyl}oxy)-1,2,5-thiadiazol-3-yl]piperazine-1-carboxamide], the IC50 was at least 10000 nM.
In the case of `O=C(Nc1cc(C(F)(F)F)cc(C(F)(F)F)c1)N1CCN(c2nsnc2OCc2ccnc(NC3CCCC3)n2)CC1` [Example 128, N-[3,5-bis(trifluoromethyl)phenyl]-4-[4-({[2-(cyclopentylamino)pyrimidin-4-yl]methyl}oxy)-1,2,5-thiadiazol-3-yl]piperazine-1-carboxamide] it was 50 to 1000 nM.
In the case of `C[C@@H]1CN(c2nsnc2OCc2ccncc2)CCN1C(=O)Nc1cc(C(F)(F)F)cc(C(F)(F)F)c1` [Example 52, (2R)-N-[3,5-bis(trifluoromethyl)phenyl]-2-methyl-4-{4-[(pyridin-4-ylmethyl)oxy]-1,2,5-thiadiazol-3-yl}piperazine-1-carboxamide] it was 50 to 1000 nM; in that of `Nc1cc(COc2nsnc2N2CCNCC2)ccn1` [Example 102, 4-{[(4-piperazin-1-yl-1,2,5-thiadiazol-3-yl)oxy]methyl}pyridin-2-amine], at least 10000 nM; in that of `CC1CN(c2nccnc2OCc2ccncc2)C(C)CN1C(=O)Nc1cc(C(F)(F)F)cc(C(F)(F)F)c1` (stereo not drawn) [Example 78, N-[3,5-bis(trifluoromethyl)phenyl]-2,5-dimethyl-4-{3-[(pyridin-4-ylmethyl)oxy]pyrazin-2-yl}piperazine-1-carboxamide], below 50 nM.
In the case of `CCN(CC)CCOC(=O)Nc1cc(COc2nsnc2N2CCN(C(=O)Nc3cc(C(F)(F)F)cc(C(F)(F)F)c3)CC2)ccn1` [Example 160, 2-(diethylamino)ethyl {4-[({4-[4-({[3,5-bis(trifluoromethyl)phenyl]amino}carbonyl)piperazin-1-yl]-1,2,5-thiadiazol-3-yl}oxy)methyl]pyridin-2-yl}carbamate] it was below 50 nM.
Regarding `CCc1cccc(NC(=O)N2CCN(c3ncccc3OC(C)c3ccnc(N)n3)CC2)c1` (stereo not drawn) [Example 245, 4-(3-{[1-(2-aminopyrimidin-4-yl)ethyl]oxy}pyridin-2-yl)-N-(3-ethylphenyl)piperazine-1-carboxamide], the IC50 is below 50 nM.
As to `O=C(Nc1cc(C(F)(F)F)cc(C(F)(F)F)c1)N1CCN(c2nccnc2CCc2ccncc2)CC1` [Example 96, N-[3,5-bis(trifluoromethyl)phenyl]-4-[3-(2-pyridin-4-ylethyl)pyrazin-2-yl]piperazine-1-carboxamide], the IC50 fell in the range of 50 to 1000 nM.
In the case of `CC1CN(c2nccnc2OCc2ccncc2)CCN1C(=O)Nc1cc(C(F)(F)F)cc(C(F)(F)F)c1` (stereo not drawn) [Example 62, N-[3,5-bis(trifluoromethyl)phenyl]-2-methyl-4-{3-[(pyridin-4-ylmethyl)oxy]pyrazin-2-yl}piperazine-1-carboxamide] it was below 50 nM; in that of `Nc1nccc(COc2nsnc2N2CCN(C(=O)Nc3cc(C(F)(F)F)cc(C(F)(F)F)c3)CC2)n1` [Example 104, 4-(4-{[(2-aminopyrimidin-4-yl)methyl]oxy}-1,2,5-thiadiazol-3-yl)-N-[3,5-bis(trifluoromethyl)phenyl]piperazine-1-carboxamide], below 50 nM.
As for `CN1CCN(CC(=O)Nc2cc(COc3cccnc3N3CCN(C(=O)Nc4cc(C(F)(F)F)ccc4F)CC3)ccn2)CC1` [Example 211, N-[2-fluoro-5-(trifluoromethyl)phenyl]-4-(3-{[(2-{[(4-methylpiperazin-1-yl)acetyl]amino}pyridin-4-yl)methyl]oxy}pyridin-2-yl)piperazine-1-carboxamide], the figure is 50 to 1000 nM; as for `CC1CN(c2nsnc2OCc2ccncc2)CC(C)N1C(=O)Nc1cc(C(F)(F)F)cc(C(F)(F)F)c1` (stereo not drawn) [Example 68, N-[3,5-bis(trifluoromethyl)phenyl]-2,6-dimethyl-4-{4-[(pyridin-4-ylmethyl)oxy]-1,2,5-thiadiazol-3-yl}piperazine-1-carboxamide], 50 to 1000 nM; as for `Nc1nccc(COc2nsnc2N2CCN(C(=O)Nc3cc(Cl)cc(Cl)c3)CC2)n1` [Example 223, 4-(4-{[(2-aminopyrimidin-4-yl)methyl]oxy}-1,2,5-thiadiazol-3-yl)-N-(3,5-dichlorophenyl)piperazine-1-carboxamide], 50 to 1000 nM.
`CCN1CCC(OC(=O)Nc2cc(COc3nsnc3N3CCN(C(=O)Nc4cc(C(F)(F)F)cc(C(F)(F)F)c4)CC3)ccn2)CC1` [Example 157, 1-ethylpiperidin-4-yl {4-[({4-[4-({[3,5-bis(trifluoromethyl)phenyl]amino}carbonyl)piperazin-1-yl]-1,2,5-thiadiazol-3-yl}oxy)methyl]pyridin-2-yl}carbamate] gave an IC50 below 50 nM.
In the case of `NC(=O)c1nccc(COc2nsnc2N2CCN(C(=O)Nc3cc(C(F)(F)F)cc(C(F)(F)F)c3)CC2)n1` [Example 136, 4-[({4-[4-({[3,5-bis(trifluoromethyl)phenyl]amino}carbonyl)piperazin-1-yl]-1,2,5-thiadiazol-3-yl}oxy)methyl]pyrimidine-2-carboxamide] it was 50 to 1000 nM.
